Data from PubChem BioAssay (NCI).
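Tested at 5 concentrations; 48 h exposure; 96-well plates; endpoints linearly interpolated, else capped at highest concentration. GI50: concentration for 50% inhibition of growth. TGI denotes the concentration required for complete inhibition of growth.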

These compounds were tested on SK-MEL-5 melanoma (assay: NCI-60 cell line screen, 48 h).
With `CN(C)Cc1c[nH]c2c1C(=O)c1c(c(O)c3ccccc3c1O)C2=O` the GI50 was 11.2 µM and the TGI was 23.3 µM.

The compounds below were run on RPMI-8226 leukemia (assay: NCI-60 cell line screen, 48 h).
Compound `N#CC1(C2SCCS2=O)C2=C(C(=O)c3ccccc3C2=O)N2CCCC21` (stereo not given) has a TGI of 9.91 µM.
In the case of `CC(=O)Oc1ccccc1C(=O)N=C1[Se]CCN1C(=O)c1ccccc1OC(C)=O`, the GI50 is reported as 2.94 µM and the TGI is reported as 8.46 µM.
In the case of `Cc1n(Cc2ccc3ccccc3c2)cc[n+]1Cc1ccc2ccccc2c1`, the GI50 is reported as 0.405 µM and the TGI is reported as 1.89 µM.
In the case of `O=C(O)Cc1c(O)ccc2ccccc12`, the TGI is reported as > 100 µM.
`O=C1/C(=C\c2cccn2Cc2ccccc2)c2ccccc2N1c1c(Cl)cccc1Cl` was tested, and the GI50 was 1.3 µM and the TGI was > 100 µM.
In the case of `Cc1sc2nc(NCCc3c[nH]c4ccc(Cl)cc34)[nH]c(=O)c2c1C`, the GI50 is reported as 2.45 µM and the TGI is reported as 7.9 µM.
In the case of `CSC1(CC(=O)N(C)C)C(=O)Nc2ccccc21` (stereo not given), the TGI is reported as > 100 µM.
With `COc1cc(/C=C2\C(=O)Nc3ccc(F)cc32)cc(OC)c1OC` the GI50 was 56.8 µM and the TGI was > 100 µM.
In the case of `C#C[C@]1(O)CC[C@H]2[C@@H]3CC=C4c5sc(Nc6ccccc6)nc5CC[C@]4(C)[C@H]3CC[C@@]21C`, the GI50 is reported as 0.309 µM and the TGI is reported as 1.6 µM.
With `O=C(O)c1c(-c2nccc3ccccc23)[nH]c(-c2ccccc2)c1S(=O)(=O)O` the TGI was > 100 µM.
In the case of `COc1ccc(/C=c2/sc3n(c2=O)C(c2ccc(OC)c(OC)c2)C2=C(N=3)c3cc(F)ccc3OC2)cc1` (stereo not given), the GI50 is reported as > 25 µM and the TGI is reported as 99.7 µM.
`O=c1[nH]c2cc(Cl)ccc2n1C1CCN(CCCC(c2ccc(F)cc2)c2ccc(F)cc2)CC1` showed a GI50 of 0.711 µM and a TGI of 3.6 µM.
Compound `Cc1c[n+](Cc2ccc3ccccc3c2)cn1Cc1ccc2ccccc2c1` has a GI50 of 0.595 µM and a TGI of 2.49 µM.
`Nc1nc(Br)nc2c1ncn2C1CC(O)C(CO)O1` (stereo not given) was tested, and the GI50 was > 25 µM and the TGI was > 100 µM.
With `Nc1nc(Nc2ccccc2)c2ncn(Cc3cc4c(cc3Br)OCO4)c2n1` the GI50 was 0.0497 µM and the TGI was > 52.7 µM.
In the case of `CCOC(=O)N1CCN(C(=O)c2ccc(C(F)(F)F)nc2Nc2cc(Cl)ccc2C)CC1`, the GI50 is reported as 11.4 µM and the TGI is reported as 64.8 µM.
In the case of `Cc1ccc(Nc2nc(N)c(C(=O)c3ccc(C#N)cc3)s2)cc1`, the GI50 is reported as 0.56 µM and the TGI is reported as > 100 µM.
In the case of `CCCCCCCCCc1cc(=O)c2c(O)cccc2o1`, the TGI is reported as > 100 µM.
In the case of `N#CC1Nc2ccccc2[C@@H](O)C1O` (stereo not given in full), the TGI is reported as > 100 µM.
For `CC(C)c1ccccc1S(=O)c1ccccc1C(C)(C)O` (stereo not given), the TGI was > 100 µM.
In the case of `Cc1c(C2Nc3ccccc3C2C)[nH]c2ccccc12` (stereo not given), the GI50 is reported as 5.29 µM and the TGI is reported as 52.3 µM.
Compound `CCN(CC)CCNCC(=O)Oc1ccc(/C=C/C(=O)CC(=O)/C=C/c2ccc(OC(=O)CNCCN(CC)CC)c(OC)c2)cc1OC` has a GI50 of 1.91 µM and a TGI of 6.01 µM.
For `COC(=O)C12C3C4C5(C(=O)OC)C(C1C35C(=O)N(C(C)C)C(C)C)C42C(=O)N(C(C)C)C(C)C` (stereo not given), the TGI was > 50 µM.
`Cc1cc(C)n(CCNCCn2nc(C)cc2C)n1` was tested, and the TGI was > 100 µM.
With `O=C1CSC(Cc2nc3ccccc3[nH]2)=N1` the TGI was > 100 µM.
For `CN(C)Cc1c[nH]c2c1C(=O)c1c(c(O)c3ccccc3c1O)C2=O`, the GI50 was 4.16 µM and the TGI was 22.2 µM.

Each compound was assayed on U251 CNS (assay: NCI-60 cell line screen, 48 h).
With `N#CC1(C2SCCS2=O)C2=C(C(=O)c3ccccc3C2=O)N2CCCC21` (stereo not given) the TGI was 11.3 µM.
Work on `CC(=O)Oc1ccccc1C(=O)N=C1[Se]CCN1C(=O)c1ccccc1OC(C)=O` yielded a GI50 of 0.734 µM and a TGI of 2.18 µM.
`Cc1n(Cc2ccc3ccccc3c2)cc[n+]1Cc1ccc2ccccc2c1` showed a GI50 of 0.818 µM and a TGI of 7.98 µM.
For `O=C(O)Cc1c(O)ccc2ccccc12`, the TGI was > 100 µM.
For `O=C1/C(=C\c2cccn2Cc2ccccc2)c2ccccc2N1c1c(Cl)cccc1Cl`, the GI50 was > 100 µM and the TGI was > 100 µM.
Compound `Cc1sc2nc(NCCc3c[nH]c4ccc(Cl)cc34)[nH]c(=O)c2c1C` has a GI50 of 2.26 µM and a TGI of 6.94 µM.
In the case of `CSC1(CC(=O)N(C)C)C(=O)Nc2ccccc21` (stereo not given), the TGI is reported as > 100 µM.
`COc1cc(/C=C2\C(=O)Nc3ccc(F)cc32)cc(OC)c1OC` was tested, and the GI50 was 13.5 µM and the TGI was 49.4 µM.
Work on `C#C[C@]1(O)CC[C@H]2[C@@H]3CC=C4c5sc(Nc6ccccc6)nc5CC[C@]4(C)[C@H]3CC[C@@]21C` yielded a GI50 of 0.886 µM and a TGI of 3.18 µM.
With `O=C(O)c1c(-c2nccc3ccccc23)[nH]c(-c2ccccc2)c1S(=O)(=O)O` the TGI was > 100 µM.
`COc1ccc(/C=c2/sc3n(c2=O)C(c2ccc(OC)c(OC)c2)C2=C(N=3)c3cc(F)ccc3OC2)cc1` (stereo not given) was tested, and the GI50 was 20.9 µM and the TGI was > 78.5 µM.
For `O=C(O)c1cc(O)c2c(c1)C(C1c3cc(C(=O)O)cc(O)c3C(=O)c3c(OC4OC(CO)C(O)C(O)C4O)cccc31)c1cccc(OC3OC(CO)C(O)C(O)C3O)c1C2=O` (stereo not given), the GI50 was > 100 µM and the TGI was > 100 µM.
In the case of `O=C(CN(C1CCCCC1)C1CCCCC1)Nc1ccc(S(=O)(=O)c2ccc(NC(=O)CN(C3CCCCC3)C3CCCCC3)cc2)cc1`, the GI50 is reported as 0.234 µM and the TGI is reported as 0.742 µM.
In the case of `O=c1[nH]c2cc(Cl)ccc2n1C1CCN(CCCC(c2ccc(F)cc2)c2ccc(F)cc2)CC1`, the GI50 is reported as 1.54 µM and the TGI is reported as 2.87 µM.
`Cc1c[n+](Cc2ccc3ccccc3c2)cn1Cc1ccc2ccccc2c1` showed a GI50 of 1.61 µM and a TGI of 3.07 µM.
`Nc1nc(Br)nc2c1ncn2C1CC(O)C(CO)O1` (stereo not given) was tested, and the GI50 was 11.4 µM and the TGI was > 100 µM.
With `Nc1nc(Nc2ccccc2)c2ncn(Cc3cc4c(cc3Br)OCO4)c2n1` the GI50 was 0.12 µM and the TGI was 1.45 µM.
In the case of `CCOC(=O)N1CCN(C(=O)c2ccc(C(F)(F)F)nc2Nc2cc(Cl)ccc2C)CC1`, the GI50 is reported as 27.1 µM and the TGI is reported as > 100 µM.
`Cc1ccc(Nc2nc(N)c(C(=O)c3ccc(C#N)cc3)s2)cc1` was tested, and the GI50 was 0.434 µM and the TGI was > 87.3 µM.
`C#CC(=O)Nc1cccc(Nc2nc3c(c(NCc4ccccc4)n2)CCCC3)c1` showed a GI50 of 0.0208 µM and a TGI of 0.0776 µM.
`CCCCCCCCCc1cc(=O)c2c(O)cccc2o1` was tested, and the TGI was > 100 µM.
With `N#CC1Nc2ccccc2[C@@H](O)C1O` (stereo not given in full) the TGI was > 100 µM.
`CC(C)c1ccccc1S(=O)c1ccccc1C(C)(C)O` (stereo not given) was tested, and the TGI was 39.1 µM.
Compound `CCN(CC)CCNCC(=O)Oc1ccc(/C=C/C(=O)CC(=O)/C=C/c2ccc(OC(=O)CNCCN(CC)CC)c(OC)c2)cc1OC` has a GI50 of 3.83 µM and a TGI of 16.2 µM.
With `COC(=O)C12C3C4C5(C(=O)OC)C(C1C35C(=O)N(C(C)C)C(C)C)C42C(=O)N(C(C)C)C(C)C` (stereo not given) the TGI was > 50 µM.
`Cc1cc(C)n(CCNCCn2nc(C)cc2C)n1` was tested, and the TGI was > 100 µM.
`O=C1CSC(Cc2nc3ccccc3[nH]2)=N1` gave a TGI of 49 µM.
Compound `CCCS(=O)(=O)Nc1ccc(Nc2c3ccccc3nc3ccccc23)c(OC)c1` has a TGI of 4.41 µM.
`CN(C)Cc1c[nH]c2c1C(=O)c1c(c(O)c3ccccc3c1O)C2=O` showed a GI50 of 5.56 µM and a TGI of 18.7 µM.

What follows are compounds tested on 786-0 renal (assay: NCI-60 cell line screen, 48 h).
Compound `N#CC1(C2SCCS2=O)C2=C(C(=O)c3ccccc3C2=O)N2CCCC21` (stereo not given) has a TGI of 18.7 µM.
`CC(=O)Oc1ccccc1C(=O)N=C1[Se]CCN1C(=O)c1ccccc1OC(C)=O` gave a GI50 of 1.46 µM and a TGI of 2.8 µM.
`Cc1n(Cc2ccc3ccccc3c2)cc[n+]1Cc1ccc2ccccc2c1` gave a GI50 of 2.25 µM and a TGI of 8.52 µM.
In the case of `O=C(O)Cc1c(O)ccc2ccccc12`, the TGI is reported as > 100 µM.
With `O=C1/C(=C\c2cccn2Cc2ccccc2)c2ccccc2N1c1c(Cl)cccc1Cl` the GI50 was > 100 µM and the TGI was > 100 µM.
Compound `Cc1sc2nc(NCCc3c[nH]c4ccc(Cl)cc34)[nH]c(=O)c2c1C` has a GI50 of 2.39 µM and a TGI of 6.23 µM.
With `CSC1(CC(=O)N(C)C)C(=O)Nc2ccccc21` (stereo not given) the TGI was > 100 µM.
In the case of `COc1cc(/C=C2\C(=O)Nc3ccc(F)cc32)cc(OC)c1OC`, the GI50 is reported as 31.2 µM and the TGI is reported as > 100 µM.
For `C#C[C@]1(O)CC[C@H]2[C@@H]3CC=C4c5sc(Nc6ccccc6)nc5CC[C@]4(C)[C@H]3CC[C@@]21C`, the GI50 was 0.655 µM and the TGI was 2.12 µM.
With `O=C(O)c1c(-c2nccc3ccccc23)[nH]c(-c2ccccc2)c1S(=O)(=O)O` the TGI was > 100 µM.
For `COc1ccc(/C=c2/sc3n(c2=O)C(c2ccc(OC)c(OC)c2)C2=C(N=3)c3cc(F)ccc3OC2)cc1` (stereo not given), the GI50 was 42.1 µM and the TGI was > 100 µM.
With `O=C(O)c1cc(O)c2c(c1)C(C1c3cc(C(=O)O)cc(O)c3C(=O)c3c(OC4OC(CO)C(O)C(O)C4O)cccc31)c1cccc(OC3OC(CO)C(O)C(O)C3O)c1C2=O` (stereo not given) the GI50 was > 100 µM and the TGI was > 100 µM.
For `O=C(CN(C1CCCCC1)C1CCCCC1)Nc1ccc(S(=O)(=O)c2ccc(NC(=O)CN(C3CCCCC3)C3CCCCC3)cc2)cc1`, the GI50 was 0.941 µM and the TGI was 2.39 µM.
For `O=c1[nH]c2cc(Cl)ccc2n1C1CCN(CCCC(c2ccc(F)cc2)c2ccc(F)cc2)CC1`, the GI50 was 1.46 µM and the TGI was 2.79 µM.
